We go through five compounds from publication PMC5623949, “Exploiting the 2-Amino-1,3,4-thiadiazole Scaffold To Inhibit Trypanosoma brucei Pteridine Reductase in Support of Early-Stage Drug Discovery” (ACS Omega, 2017).

Bounds are passed on as bounds.

CYP2D6, sequence (P10635 whole entry, canonical isoform): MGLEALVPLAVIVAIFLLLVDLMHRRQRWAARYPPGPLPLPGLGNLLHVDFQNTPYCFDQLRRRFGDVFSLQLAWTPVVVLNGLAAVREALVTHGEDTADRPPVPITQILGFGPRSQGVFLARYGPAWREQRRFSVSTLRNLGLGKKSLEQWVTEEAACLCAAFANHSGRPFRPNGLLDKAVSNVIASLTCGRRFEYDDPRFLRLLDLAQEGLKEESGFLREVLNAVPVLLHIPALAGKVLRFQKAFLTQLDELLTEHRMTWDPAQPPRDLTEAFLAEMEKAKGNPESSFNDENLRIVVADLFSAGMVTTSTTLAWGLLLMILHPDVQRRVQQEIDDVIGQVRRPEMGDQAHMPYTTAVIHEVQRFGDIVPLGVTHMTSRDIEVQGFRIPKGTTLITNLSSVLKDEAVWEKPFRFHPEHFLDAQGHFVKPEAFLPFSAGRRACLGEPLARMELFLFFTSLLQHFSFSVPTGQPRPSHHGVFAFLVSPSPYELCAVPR
CYP2C9, sequence (P11712 whole entry): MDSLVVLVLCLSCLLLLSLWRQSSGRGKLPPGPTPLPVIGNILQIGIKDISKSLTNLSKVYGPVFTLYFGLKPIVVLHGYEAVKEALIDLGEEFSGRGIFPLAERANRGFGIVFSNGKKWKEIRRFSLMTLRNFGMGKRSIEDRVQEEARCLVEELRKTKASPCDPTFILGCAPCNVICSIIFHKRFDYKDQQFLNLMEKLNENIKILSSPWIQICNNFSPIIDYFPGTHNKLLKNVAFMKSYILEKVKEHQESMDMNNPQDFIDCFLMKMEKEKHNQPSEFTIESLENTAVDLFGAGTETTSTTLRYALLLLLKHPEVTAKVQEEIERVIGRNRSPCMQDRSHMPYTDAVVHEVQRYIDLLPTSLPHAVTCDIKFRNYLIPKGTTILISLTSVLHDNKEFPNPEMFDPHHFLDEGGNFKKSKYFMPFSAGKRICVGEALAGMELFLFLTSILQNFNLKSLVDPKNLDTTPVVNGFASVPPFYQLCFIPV

In one series the test system is T. b. brucei Lister 427 bloodstream forms. In words: In vitro activity against T. brucei (HTS SYBR Green I growth inhibition assay). The series is classed as cell-based, Trypanosoma brucei brucei. The conditions noted are these: 50 μM; standard deviation within ±10% of the value.
For the compound `Nc1nnc(-c2cc(O)c(O)c(O)c2)s1` [1f, 3′,4′,5′-trihydroxy-phenyl-1,3,4-thiadiazole], the “% Inhibition T. brucei at 50 μM” value was 100.0%.

The same series, now with this note: Trypanosoma brucei, 50 μM; standard deviation within ±10% of the value; read-out: % Inhibition T. brucei at 50 μM.
As a reminder, the inhibition is the relative decrease from the control value, in per cent. In the case of `Nc1nnc(-c2cccc(-c3ccccc3)c2)s1` [2c], the inhibition at 50 µM stood at 14.4%.
Same read-out and setting: the result for `Nc1nnc(NCc2ccc(C(F)(F)F)cc2)s1` [4f] reads below 0%; that for `COc1ccc(-c2nnc(N)s2)cc1OC` [1c], 64.3%; that for `Nc1nnc(Cc2ccccc2)s1` [3b], below 0%.

Still in this series, the particulars now being: Trypanosoma brucei, standard deviation within ±10% of the value; read-out: EC50 T. brucei.
As a reminder, the EC50 is the concentration needed to bring the measured effect to its halfway point. `Nc1nnc(-c2cc(O)c(O)c(O)c2)s1` [1f, 3′,4′,5′-trihydroxy-phenyl-1,3,4-thiadiazole]: the EC50 was 1 µM.

The test system of a further series is 786-O. In words: cells. On the set-up: mitochondrial toxicity in 786-O renal carcinoma cells. The conditions noted are these: Homo sapiens, 786-0; mitochondrial toxicity.
On to `Nc1nnc(-c2cccc(-c3ccccc3)c2)s1` [2c], for which the inhibition at 10 µM is 0%.
Same read-out and setting: the result for `Nc1nnc(NCc2ccc(C(F)(F)F)cc2)s1` [4f] reads 9.6 ± 12.5%.
Still for that read-out and setting: the result for `COc1ccc(-c2nnc(N)s2)cc1OC` [1c] reads -7.3 ± 5.2%.
The same measure, in the same setting: the result for `Nc1nnc(Cc2ccccc2)s1` [3b] reads -7.4 ± 11.1%; that for `Nc1nnc(-c2cc(O)c(O)c(O)c2)s1` [1f, 3′,4′,5′-trihydroxy-phenyl-1,3,4-thiadiazole], -9.6 ± 7.9%.

In a further series the target is CYP3A4 (Homo sapiens, UniProt P08684). Put plainly: in vitro. On the set-up: cytochrome P450 isoform inhibition liability assay.
CYP3A4, sequence (P08684 whole entry, canonical isoform): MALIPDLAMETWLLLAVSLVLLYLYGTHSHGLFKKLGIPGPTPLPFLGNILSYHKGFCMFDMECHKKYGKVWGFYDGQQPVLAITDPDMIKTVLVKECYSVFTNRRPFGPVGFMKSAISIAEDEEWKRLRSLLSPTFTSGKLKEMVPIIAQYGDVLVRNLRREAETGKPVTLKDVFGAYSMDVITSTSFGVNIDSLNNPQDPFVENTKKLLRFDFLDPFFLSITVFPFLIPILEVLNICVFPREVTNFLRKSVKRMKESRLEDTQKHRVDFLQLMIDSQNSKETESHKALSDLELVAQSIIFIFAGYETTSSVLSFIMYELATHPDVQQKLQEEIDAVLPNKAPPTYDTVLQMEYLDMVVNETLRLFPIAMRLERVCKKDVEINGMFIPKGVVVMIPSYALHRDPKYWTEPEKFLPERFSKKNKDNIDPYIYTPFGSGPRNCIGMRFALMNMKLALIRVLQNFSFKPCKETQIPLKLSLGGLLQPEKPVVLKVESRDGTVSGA
Settings: not given
Take `Nc1nnc(-c2cccc(-c3ccccc3)c2)s1` [2c]: the inhibition at 10 µM is 59.5 ± 3.7%.
On the same count and under the same terms, the result for `Nc1nnc(NCc2ccc(C(F)(F)F)cc2)s1` [4f] reads 7.8 ± 9.8%; that for `COc1ccc(-c2nnc(N)s2)cc1OC` [1c], -7.1 ± 6%.
Turning to `Nc1nnc(Cc2ccccc2)s1` [3b], the inhibition at 10 µM is -23.7 ± 5.9%.
On the same count and under the same terms, the result for `Nc1nnc(-c2cc(O)c(O)c(O)c2)s1` [1f, 3′,4′,5′-trihydroxy-phenyl-1,3,4-thiadiazole] reads 67.7 ± 3.1%.

For another series, the target named is CYP2C19 (Homo sapiens, UniProt P33261). Put plainly: in vitro. The arrangement: cytochrome P450 isoform inhibition liability assay.
CYP2C19, sequence (P33261 whole entry, canonical isoform): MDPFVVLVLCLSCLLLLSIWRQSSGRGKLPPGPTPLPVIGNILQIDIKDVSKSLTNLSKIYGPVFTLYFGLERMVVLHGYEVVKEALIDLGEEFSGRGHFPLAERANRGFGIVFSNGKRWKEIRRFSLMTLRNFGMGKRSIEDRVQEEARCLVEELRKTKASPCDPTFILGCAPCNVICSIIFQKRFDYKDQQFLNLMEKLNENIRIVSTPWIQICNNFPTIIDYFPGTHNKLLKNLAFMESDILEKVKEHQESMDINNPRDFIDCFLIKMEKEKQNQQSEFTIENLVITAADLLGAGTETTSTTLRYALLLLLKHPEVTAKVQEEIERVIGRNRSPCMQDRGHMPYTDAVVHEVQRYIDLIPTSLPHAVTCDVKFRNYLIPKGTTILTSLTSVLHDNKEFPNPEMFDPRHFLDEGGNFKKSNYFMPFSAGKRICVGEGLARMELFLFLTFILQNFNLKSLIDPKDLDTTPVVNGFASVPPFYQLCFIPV
Settings: not given
Turning to `Nc1nnc(-c2cccc(-c3ccccc3)c2)s1` [2c], the inhibition at 10 µM turned out to be 65.1 ± 6.8%.
Turning to `Nc1nnc(NCc2ccc(C(F)(F)F)cc2)s1` [4f], the inhibition at 10 µM came to 11.9 ± 6.6%.
As to `COc1ccc(-c2nnc(N)s2)cc1OC` [1c], the inhibition at 10 µM was -26.1 ± 22.5%.
Still for that read-out and setting: the result for `Nc1nnc(Cc2ccccc2)s1` [3b] reads -42.6 ± 5.5%; that for `Nc1nnc(-c2cc(O)c(O)c(O)c2)s1` [1f, 3′,4′,5′-trihydroxy-phenyl-1,3,4-thiadiazole], 67.4 ± 7.3%.

A further series addresses CYP2D6 (Homo sapiens, UniProt P10635). In words: in vitro. The arrangement: cytochrome P450 isoform inhibition liability assay.
Settings: not given
With `Nc1nnc(-c2cccc(-c3ccccc3)c2)s1` [2c], the inhibition at 10 µM was found to be 48.2 ± 2.3%.
Same read-out and setting: in the case of `Nc1nnc(NCc2ccc(C(F)(F)F)cc2)s1` [4f] it was 72.4 ± 3.8%; in that of `COc1ccc(-c2nnc(N)s2)cc1OC` [1c], -45.9 ± 3.1%; in that of `Nc1nnc(Cc2ccccc2)s1` [3b], -41.7 ± 3.9%.
The same measure, in the same setting: the result for `Nc1nnc(-c2cc(O)c(O)c(O)c2)s1` [1f, 3′,4′,5′-trihydroxy-phenyl-1,3,4-thiadiazole] reads -6 ± 7.3%.

Another series addresses CYP2C9 (Homo sapiens, UniProt P11712). Put plainly: in vitro.
Settings: not given
On the set-up: cytochrome P450 isoform inhibition liability assay.
For the compound `Nc1nnc(-c2cccc(-c3ccccc3)c2)s1` [2c], the inhibition at 10 µM amounted to 24.1 ± 0.4%.
As to `Nc1nnc(NCc2ccc(C(F)(F)F)cc2)s1` [4f], the inhibition at 10 µM worked out at 19.5 ± 1.3%.
Same read-out and setting: in the case of `COc1ccc(-c2nnc(N)s2)cc1OC` [1c] it was -25.9 ± 1.5%; in that of `Nc1nnc(Cc2ccccc2)s1` [3b], -20.4 ± 1.8%; in that of `Nc1nnc(-c2cc(O)c(O)c(O)c2)s1` [1f, 3′,4′,5′-trihydroxy-phenyl-1,3,4-thiadiazole], 38.2 ± 5.4%.

The target in the next series is T1, CYP1A2 (Homo sapiens, UniProt P05177).
T1 sequence (P05177 1-516): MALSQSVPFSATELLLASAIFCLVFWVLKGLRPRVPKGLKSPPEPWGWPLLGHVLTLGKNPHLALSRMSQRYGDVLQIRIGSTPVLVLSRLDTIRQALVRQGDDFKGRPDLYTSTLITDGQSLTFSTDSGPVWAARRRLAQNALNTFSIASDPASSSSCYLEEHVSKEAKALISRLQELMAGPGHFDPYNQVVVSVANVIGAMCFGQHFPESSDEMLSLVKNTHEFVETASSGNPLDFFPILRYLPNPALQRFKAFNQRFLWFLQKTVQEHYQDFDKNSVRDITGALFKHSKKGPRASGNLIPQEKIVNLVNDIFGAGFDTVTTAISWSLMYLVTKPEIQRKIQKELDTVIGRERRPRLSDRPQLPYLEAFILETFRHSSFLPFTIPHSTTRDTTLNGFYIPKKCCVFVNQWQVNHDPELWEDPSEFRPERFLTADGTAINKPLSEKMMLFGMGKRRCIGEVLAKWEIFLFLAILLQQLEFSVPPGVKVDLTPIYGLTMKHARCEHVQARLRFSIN
Put plainly: in vitro. The arrangement: cytochrome P450 isoform inhibition liability assay.
Settings: not given
Turning to `Nc1nnc(-c2cccc(-c3ccccc3)c2)s1` [2c], the inhibition at 10 µM came to 101 ± 1.4%.
The same measure, in the same setting: in the case of `Nc1nnc(NCc2ccc(C(F)(F)F)cc2)s1` [4f] it was 24.6 ± 2.5%; in that of `COc1ccc(-c2nnc(N)s2)cc1OC` [1c], 14.1 ± 3.4%; in that of `Nc1nnc(Cc2ccccc2)s1` [3b], -10.2 ± 1.6%.
Turning to `Nc1nnc(-c2cc(O)c(O)c(O)c2)s1` [1f, 3′,4′,5′-trihydroxy-phenyl-1,3,4-thiadiazole], the inhibition at 10 µM was 71.4 ± 6.9%.

For another series, the target named is T2, hDHFR (Homo sapiens, UniProt P00374).
T2 construct: gene DHFR
T2 sequence (P00374 1-187): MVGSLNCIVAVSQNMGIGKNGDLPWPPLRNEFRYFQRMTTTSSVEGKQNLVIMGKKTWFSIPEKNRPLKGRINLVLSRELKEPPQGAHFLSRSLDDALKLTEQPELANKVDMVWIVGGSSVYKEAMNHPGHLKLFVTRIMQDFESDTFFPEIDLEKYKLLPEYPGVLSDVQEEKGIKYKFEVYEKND
In words: biochemical. The arrangement: human DHFR enzyme inhibition.
Settings: not given
As to the method:
Figure 10 Summary heat map of the in vitro assays to determine possible liability issues for all synthesized compounds. Assays were performed to assess inhibition of hERG and five CYP isoforms (1A2, 2C9, 2C19, 2D6, and 3A4), growth inhibition of A549 and W1-38 cell lines, and mitochondrial toxicity at 10 μM. The hDHFR inhibition was determined at 100 μM. The data, expressed as percentage values, were organized by adopting a color code for rapid and intuitive visualization. The ideal compound should have all tiles blue, indicating a safe toxicological profile for progressing into the development pipeline. The cells are colored from blue (100% of cell growth at the tested concentration) to red (0% of cell growth at the tested concentration) for A549 and W1-38 and from blue (0% of inhibitory activity at the tested concentration) to red (100% of inhibitory activity at the tested concentration) for CYP isoforms, hERG, hDHFR, and mitochondrial toxicity.
For `Nc1nnc(NCc2ccc(C(F)(F)F)cc2)s1` [4f], the inhibition at 100 µM amounted to 19%.
The same measure, in the same setting: in the case of `COc1ccc(-c2nnc(N)s2)cc1OC` [1c] it was 42%; in that of `Nc1nnc(Cc2ccccc2)s1` [3b], 6%; in that of `Nc1nnc(-c2cc(O)c(O)c(O)c2)s1` [1f, 3′,4′,5′-trihydroxy-phenyl-1,3,4-thiadiazole], 31%.

The same series, now with this note: 25 uM.
On to `Nc1nnc(-c2cccc(-c3ccccc3)c2)s1` [2c], for which the inhibition at 25 µM was 23%.

In the next series the target is T3, hERG (Homo sapiens, UniProt Q12809).
T3 construct: gene KCNH2
T3 sequence (Q12809 whole entry): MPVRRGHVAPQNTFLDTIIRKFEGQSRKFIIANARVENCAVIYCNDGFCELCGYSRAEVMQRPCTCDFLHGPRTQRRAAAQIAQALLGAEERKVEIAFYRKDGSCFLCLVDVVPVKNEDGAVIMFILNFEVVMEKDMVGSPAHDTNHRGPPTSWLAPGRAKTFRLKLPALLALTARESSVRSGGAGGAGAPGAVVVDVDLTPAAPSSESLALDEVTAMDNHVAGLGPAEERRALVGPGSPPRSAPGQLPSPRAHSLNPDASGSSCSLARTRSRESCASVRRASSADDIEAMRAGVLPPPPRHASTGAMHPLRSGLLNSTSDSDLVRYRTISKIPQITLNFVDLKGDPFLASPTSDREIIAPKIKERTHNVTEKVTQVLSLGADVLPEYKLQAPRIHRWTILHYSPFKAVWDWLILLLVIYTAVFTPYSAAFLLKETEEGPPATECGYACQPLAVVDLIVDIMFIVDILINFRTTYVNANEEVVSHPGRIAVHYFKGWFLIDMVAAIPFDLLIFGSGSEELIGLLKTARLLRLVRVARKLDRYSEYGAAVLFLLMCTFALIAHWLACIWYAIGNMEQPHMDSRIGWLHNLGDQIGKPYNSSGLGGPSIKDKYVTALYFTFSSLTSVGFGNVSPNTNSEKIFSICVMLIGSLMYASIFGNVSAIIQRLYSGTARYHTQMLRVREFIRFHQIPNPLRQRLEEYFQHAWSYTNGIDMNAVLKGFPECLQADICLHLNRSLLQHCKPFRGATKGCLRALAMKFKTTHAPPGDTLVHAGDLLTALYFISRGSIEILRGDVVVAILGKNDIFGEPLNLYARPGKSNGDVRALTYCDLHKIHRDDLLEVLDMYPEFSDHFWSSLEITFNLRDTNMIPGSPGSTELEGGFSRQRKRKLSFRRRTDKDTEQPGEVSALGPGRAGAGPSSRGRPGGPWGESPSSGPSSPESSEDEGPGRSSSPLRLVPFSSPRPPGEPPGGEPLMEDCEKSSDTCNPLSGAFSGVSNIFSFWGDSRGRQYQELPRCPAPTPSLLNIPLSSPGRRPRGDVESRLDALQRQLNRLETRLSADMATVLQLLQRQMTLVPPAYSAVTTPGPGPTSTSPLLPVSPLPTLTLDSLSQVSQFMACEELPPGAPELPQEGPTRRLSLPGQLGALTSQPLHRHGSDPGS
Experiment: not given
On the set-up: hERG inhibition liability assay.
Settings: not given
On to `Nc1nnc(-c2cccc(-c3ccccc3)c2)s1` [2c], for which the inhibition at 10 µM amounted to 83.7 ± 2.5%.
Still for that read-out and setting: the result for `Nc1nnc(NCc2ccc(C(F)(F)F)cc2)s1` [4f] reads 69.9 ± 2.3%; that for `COc1ccc(-c2nnc(N)s2)cc1OC` [1c], 13.6 ± 4%.
As for `Nc1nnc(Cc2ccccc2)s1` [3b], the inhibition at 10 µM stood at 11.1 ± 5.2%.
Same read-out and setting: the result for `Nc1nnc(-c2cc(O)c(O)c(O)c2)s1` [1f, 3′,4′,5′-trihydroxy-phenyl-1,3,4-thiadiazole] reads 3.3 ± 2.2%.

Test system in a further series: not listed separately
In words: in vitro. As to conditions: human, wi-38 cells; read-out: % cell growth W1-38 at 10uM. On the set-up: cytotoxicity, per cent cell growth of WI-38 fibroblasts.
Turning to `Nc1nnc(-c2cccc(-c3ccccc3)c2)s1` [2c], the viability at 10 µM is 87.2 ± 13.8%.
In the case of `Nc1nnc(NCc2ccc(C(F)(F)F)cc2)s1` [4f], the viability at 10 µM was determined as 80.9 ± 23.6%.
Take `COc1ccc(-c2nnc(N)s2)cc1OC` [1c]: the viability at 10 µM is 110 ± 33.5%.
On the same count and under the same terms, in the case of `Nc1nnc(Cc2ccccc2)s1` [3b] it was 120 ± 1.7%; in that of `Nc1nnc(-c2cc(O)c(O)c(O)c2)s1` [1f, 3′,4′,5′-trihydroxy-phenyl-1,3,4-thiadiazole], 111 ± 12.9%.

Test system in the next series: not listed separately
Put plainly: in vitro. On the set-up: cytotoxicity, per cent cell growth of A549 cells. As to conditions: human, a549 cells; read-out: % cell growth A549 at 10uM.
Turning to `Nc1nnc(-c2cccc(-c3ccccc3)c2)s1` [2c], the viability at 10 µM worked out at 115 ± 5.3%.
The same measure, in the same setting: the result for `Nc1nnc(NCc2ccc(C(F)(F)F)cc2)s1` [4f] reads 113 ± 4.8%; that for `COc1ccc(-c2nnc(N)s2)cc1OC` [1c], 105 ± 5.3%.
The same measure, in the same setting: the result for `Nc1nnc(Cc2ccccc2)s1` [3b] reads 125 ± 4.8%.
The same measure, in the same setting: in the case of `Nc1nnc(-c2cc(O)c(O)c(O)c2)s1` [1f, 3′,4′,5′-trihydroxy-phenyl-1,3,4-thiadiazole] it was 118 ± 3.1%.

The next series concerns the target T4, TbPTR1 (Trypanosoma brucei brucei, UniProt O76290).
T4 construct: made in house
T4 sequence (O76290 1-268): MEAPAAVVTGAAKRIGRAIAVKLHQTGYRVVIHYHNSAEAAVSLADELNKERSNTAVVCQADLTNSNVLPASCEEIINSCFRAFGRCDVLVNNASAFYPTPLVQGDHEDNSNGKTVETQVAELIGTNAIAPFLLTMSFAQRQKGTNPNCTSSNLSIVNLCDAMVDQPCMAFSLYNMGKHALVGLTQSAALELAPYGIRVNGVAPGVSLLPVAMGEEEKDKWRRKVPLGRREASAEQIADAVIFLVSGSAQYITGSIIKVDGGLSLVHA
Put plainly: biochemical. As to conditions: 50 μM compound.
With `Nc1nnc(-c2cc(O)c(O)c(O)c2)s1` [1f, 3′,4′,5′-trihydroxy-phenyl-1,3,4-thiadiazole], the “% Inhibition TbPTR1 at 50 μM” value is on record as “did not show inhibition”.

The series is the same for the next values; noted with them: 50 μM compound; read-out: % Inhibition TbPTR1 at 50 μM.
For the compound `Nc1nnc(-c2cccc(-c3ccccc3)c2)s1` [2c], the inhibition at 50 µM was found to be 25.2 ± 1.4%.
The same measure, in the same setting: in the case of `Nc1nnc(NCc2ccc(C(F)(F)F)cc2)s1` [4f] it was 37.7 ± 0.5%; in that of `COc1ccc(-c2nnc(N)s2)cc1OC` [1c], 9.4 ± 0.3%; in that of `Nc1nnc(Cc2ccccc2)s1` [3b], 8.1 ± 0.2%.
Still for that read-out and setting: the result for `Nc1nnc(-c2cc(O)c(O)c(O)c2)s1` [1f, 3′,4′,5′-trihydroxy-phenyl-1,3,4-thiadiazole] reads 44.9 ± 0.9%.

The same series, now with this note: dose-response 0.001-100 μM.
One may read the IC50 as the concentration at which inhibition is half-maximal. The low end stands for higher potency, the high end for lower potency. `Nc1nnc(NCc2ccc(C(F)(F)F)cc2)s1` [4f] had an IC50 of 48 µM.
The same measure, in the same setting: in the case of `Nc1nnc(-c2cc(O)c(O)c(O)c2)s1` [1f, 3′,4′,5′-trihydroxy-phenyl-1,3,4-thiadiazole] it was 41 µM.
